From paper PMC5973995 (Clinical Pharmacokinetics, 2017)

How the values were obtained:
[1] = cited from earlier work
[2] = given along with vortioxetine (Fig. 4)
[3] = cocktail with vortioxetine (Fig. 4)

SMILES | effect of vortioxetine on the pharmacokinetics of the co-administered drug [2] | also measured
COc1ccc2[nH]c([S+]([O-])Cc3ncc(C)c(OC)c3C)nc2c1 (stereo not shown) [omeprazole] | no apparent effect | C max, upper limit of the 90% CI (with vs without vortioxetine) ([1]; multiple doses of vortioxetine (Fig. 4)): 130%; 90% CI for AUC(0–inf) (with vs without vortioxetine) ([1]; multiple doses of vortioxetine, within limits): 80–125%
C#C[C@]1(O)CC[C@H]2[C@@H]3CCC4=CC(=O)CC[C@@H]4[C@H]3CC[C@@]21CC [levonorgestrel] | No effect | 
CN1C(=O)CN=C(c2ccccc2)c2cc(Cl)ccc21 [diazepam] | No effect | 
Cn1c(=O)c2c(ncn2C)n(C)c1=O [caffeine] | No effect | 
COc1ccc2c(c1)[C@]13CCCC[C@@H]1[C@H](C2)N(C)CC3 [dextromethorphan] |  | AUC(0–inf), 90% CI lower limit (with vs without vortioxetine) [1, 3]: 58%; C max, 90% CI lower limit (with vs without vortioxetine) [1, 3]: 68%
Cc1ncc2n1-c1ccc(Cl)cc1C(c1ccccc1F)=NC2 [midazolam] | No effect | 
O=C([O-])[O-].[Li+].[Li+] [lithium] | No effect | 
C#C[C@]1(O)CC[C@H]2[C@@H]3CCc4cc(O)ccc4[C@H]3CC[C@@]21C [ethinyl estradiol] | No effect | 
CCO [ethanol] | No effect | 
CC(=O)Oc1ccccc1C(=O)O [aspirin] | No effect | 
